Data taken from patent US20130216614A1, “IMMUNOGENIC COMPOSITIONS AND METHODS FOR TREATING NUEROLOGIC DISORDERS” (Glaxosmithkline Biologicals S.A., priority 2010, published 2013).

Tested on: peripheral blood monocytes
Assay: Ex vivo uptake of fluorescent Aβ42 by peripheral blood monocytes from adjuvanted mice
Assay type: in vivo, C57BL/6 mice
Conditions: 24 hrs after i.m. injection, FIG. 21; QS21 5 μg
Text: To begin to examine the function of the increase of monocytes in the peripheral blood, we examined the capacity of those monocytes to uptake Aβ42 in a test tube. In order to measure that phagocytic activity, we have used fluorescent HiLyteFluo Aβ42 (Anaspec Inc).
We examined the capacity of monocytes to uptake Aβ42 in a test tube. In order to measure that phagocytic activity we have used fluorescent HiLyteFluo Aβ42 (Anaspec Inc).
Preparation of cells: Peripheral blood was drawn from C57BL/6 mice via cardiac puncture with lithium-heparin as anticoagulant, 24-Hour after injection of the adjuvants used herein. Red blood cell lysis was performed twice on pooled blood with Ammonium Chloride-based Buffer (Sigma, Steinheim, Germany) and cells were counted with the EasyCount™ System (Immunicon). […]
Samples were acquired on a flow cytometer (BD FACSCanto II) and data analyzed with the FACSDiva software (BD Biosciences).
Monocytes were identified by their Side/Forward scatter properties, excluding debris and gated as CD3-/CD45R/B220-/Ly-6G-/NK1.1-(Lineage-)/CD11b+ cells. Aβ uptake was assessed by reporting the percentage and Mean Fluorescence Intensity (GeoMean) of positive HiLyte fluor488 Aβ1-42 cells among gated monocytes.

QS21 [reference compound]
ex vivo Aβ uptake by mouse peripheral blood monocytes: does not promote
